The text below walks through data of patent publication US6579983B1, “5-cyano-2-aminopyrimidine derivatives” (Celltech R&D Limited, priority 1999, dated 2003).

The structures appear in SMILES notation.

The compound `COc1cc(Nc2ncc(C#N)c(-c3ccc(C(C)(C)N)cc3)n2)cc(OC)c1OC` [Example 9, 4-[4-(1-Amino-1-methylethyl)phenyl]-5-cyano-N-(3,4,5-trimethoxyphenyl)pyrimidine-2-amine] registered a melting point of 167 to 168 °C.

`CC(C)(N)c1ccc(-c2nc(Nc3ccc4[nH]ncc4c3)ncc2C#N)cc1` [Example 8, 4-[4-(1-Amino-1-methylethyl)phenyl]-5-cyano-N-(indazol-5-yl)pyrimidine-2-amine]: the melting point is 267 to 271 °C (dec.).

A word on the melting point: it is the temperature, or range, at which the solid turns liquid.
